We go through five compounds from PMC11051198, “Synthesis and Late-Stage Modification of (−)-Doliculide Derivatives Using Matteson’s Homologation Approach” (Marine Drugs, 2024).

Data set [1] has as its system CHO-K1. In words: MTT cytotoxicity assay, CHO-K1. Format: cell-based. The following applies: CHO-K1 mutagenized Chinese hamster ovary, 5 d incubation, 37 °C, 5% CO2, DMEM + 10% FBS, mean ± SD of two independent measurements. The protocol:
(§1) The cell cultures were cultivated at 37 °C under an atmosphere containing 5% CO2. Before usage, Dulbecco’s Modified Eagle Medium (DMEM) from Gibco (Thermo Fisher Scientific) was supplemented with 10% fetal bovine serum (FBS) from Gibco. Cells were used between passage 5 and 30 and were split separately for at least two passages to obtain biological repeats. Cells were washed with PBS and 0.5 mL trypsin was added before treatment. Cells were then incubated for 5 min before adding 10 mL medium containing 10% FBS. Per well, 120 µL cell suspension 5 × 10^4 cells/mL (CHO-K1, HCT-116. U-2 OS, KB3.1) or 1 × 10^5 cells/mL (HepG2) cells were seeded in transparent 96-well cell bind plate and incubated for 2 h at 37 °C and an atmosphere of 5% CO2. Each compound was tested in a serial dilution so that the starting concentration is 111 µg/mL, which is diluted by 1:3 as well as the internal solvent control prepared in DMEM with 10% FBS. After 5 d incubation at 37 °C and an atmosphere of 5% CO2, 20 μL of 5 mg/mL MTT (thiazolyl blue tetrazolium bromide) in PBS was added per well and cells were further incubated until coloration of the cells. The medium was then discarded and 100 μL 2-propanol/10 N HCl (250:1) added to the cells. The plates were analyzed by measuring the absorbance at 570 nm and 630 nm as reference using a microplate reader Infinite® 200 Pro from Tecan (Männedorf, Switzerland). Absorption is then converted to cell viability expressed as percentage relative to the respective solvent control. The calculated percentage of growth inhibition were determined by sigmoidal curve fitting using GraphPad (Boston, MA, USA) Prism software (version 10.0.2). Two independent measurements were generated for mean and standard deviation.

Data set [2] has as its system HeLa-S3 cells. The following applies: ref [1]; cited from earlier work. The protocol: Isolation of (−)-doliculide (Figure 1) from the Japanese sea hare, Dolabella auricularia, was first reported almost 30 years ago by Yamada et al., along with its potent cytotoxicity against HeLa-S3 cells (IC50 = 1 ng/mL). […] Due to their biological activities as anticancer agents, naturally derived cyclopeptides are interesting candidates for drug development, and so ...

Data set [3] has as its system KB3.1. As to the kind of experiment: MTT cytotoxicity assay, KB3.1. Format: cell-based. The following applies: KB3.1 human epidermoid carcinoma cell line, 5 d incubation, 37 °C, 5% CO2, DMEM + 10% FBS, mean ± SD of two independent measurements. The protocol:
as §1
(In general: Formazan colour is commonly taken as a measure of viable cells.)

Data set [4] has as its system U-2 OS. In words: MTT cytotoxicity assay, U-2 OS. The format is cell-based. The following applies: U-2 OS human bone osteosarcoma, 5 d incubation, 37 °C, 5% CO2, DMEM + 10% FBS, mean ± SD of two independent measurements. As to the method:
as §1

The subject of data set [5] is HCT-116. As to the kind of experiment: MTT cytotoxicity assay, HCT-116. Format: cell-based. The following applies: HCT-116 human colon carcinoma, 5 d incubation, 37 °C, 5% CO2, DMEM + 10% FBS, mean ± SD of two independent measurements. As to the method: as §1
For data set [6], the system named is HepG2. In words: MTT cytotoxicity assay, HepG2. The format is cell-based. The following applies: HepG2 human hepatocellular carcinoma, 5 d incubation, 37 °C, 5% CO2, DMEM + 10% FBS, mean ± SD of two independent measurements. As to the method:
as §1

[7] abbreviates: ≤ values: individual results varied widely, given as a range.

Usually IC50 stands for the point on the concentration scale where inhibition reaches its midpoint. Turning to `CC(C)[C@@H]1C[C@H](O)[C@H](C)C[C@H](C)C[C@H](C)C(=O)NCC(=O)N(C)[C@H](Cc2ccc(O)c(I)c2)C(=O)O1` [A, (−)-Doliculide], the IC50 in data set [1] amounted to 111 ± 4.5 nM; in data set [3] (setting [7]), 38 ± 9.9 nM; in data set [4] (setting [7]), 25.2 ± 1.8 nM; in data set [5] (setting [7]), 8.8 ± 0.5 nM; in data set [6], 16.4 ± 4.2 nM. For the same compound, the “cytotoxicity against HeLa-S3 cells, IC50” value in data set [2] is 1 ng/mL.

For the compound `CCCCSCCC[C@@H]1C[C@H](O)[C@H](C)C[C@H](C)C[C@H](C)C(=O)NCC(=O)N(C)[C@H](Cc2ccc(O)c(I)c2)C(=O)O1` [Compound 11b, (3R,9S,11S,13R,14S,16R)-16-[3-(Butylthio)propyl]-14-hydroxy-3-(4-hydroxy-3-iodobenzyl)-4,9,11,13-tetramethyl-1-oxa-4,7-diazacyclohexadecane-2,5,8-trione], the IC50 was 142 ± 85 nM in data set [1]; 28 ± 3 nM in data set [3] (setting [7]); 238 ± 10 nM in data set [4] (setting [7]); greater than 52500 nM in data set [5]; greater than 52500 nM in data set [6].

With `C[C@H]1C[C@@H](C)[C@@H](O)C[C@@H](CCCSCc2ccccc2)OC(=O)[C@@H](Cc2ccc(O)c(I)c2)N(C)C(=O)CNC(=O)[C@@H](C)C1` [Compound 11c, (3R,9S,11S,13R,14S,16R)-16-[3-(Benzylthio)propyl]-14-hydroxy-3-(4-hydroxy-3-iodobenzyl)-4,9,11,13-tetramethyl-1-oxa-4,7-diazacyclohexadecane-2,5,8-trione], the IC50 in data set [1] was 391 ± 122 nM; in data set [3] (setting [7]), 37 ± 1 nM; in data set [4] (setting [7]), 582 ± 68 nM; in data set [5] (setting [7]), 10.8 ± 1.2 nM; in data set [6], greater than 50000 nM.

Regarding `CCOC(=O)CCSCCC[C@@H]1C[C@H](O)[C@H](C)C[C@H](C)C[C@H](C)C(=O)NCC(=O)N(C)[C@H](Cc2ccc(O)c(I)c2)C(=O)O1` [Compound 11d, Ethyl 3-({3-[(3R,9S,11S,13R,14S,16R)-14-hydroxy-3-(4-hydroxy-3-iodobenzyl)-4,9,11,13-tetramethyl-2,5,8-trioxo-1-oxa-4,7-diazacyclohexadecan-16-yl]propyl}-thio)propanoate], the IC50 was 9840 ± 3870 nM in data set [1]; 3930 ± 1140 nM in data set [3]; 4900 ± 3870 nM in data set [4]; 60 ± 13 nM in data set [5] (setting [7]); greater than 49400 nM in data set [6].

For the compound “Benzyl 2-(4-{[(3R,9S,11S,13R,14S,16R)-14-hydroxy-3-(4-hydroxy-3-iodobenzyl)-4,9,11,13-tetramethyl-2,5,8-trioxo-1-oxa-4,7-diazacyclohexadecan-16-yl]methyl}-1H-1,2,3-triazol-1-yl)acetate [Compound 9c]”, the IC50 in data set [1] is 23800 ± 500 nM; in data set [3] it was 21900 ± 12600 nM; in data set [4], 14400 ± 1300 nM; in data set [5] it was 3810 ± 1000 nM; in data set [6], greater than 46000 nM.
